In this test the target is α7-subtype of nicotinic receptors (Rattus norvegicus, UniProt Q05941). In words: biochemical. It is filed as binding.

Where a name gives a salt, the structure may show the parent alone.

Sequence of α7-subtype of nicotinic receptors (Q05941 23-502): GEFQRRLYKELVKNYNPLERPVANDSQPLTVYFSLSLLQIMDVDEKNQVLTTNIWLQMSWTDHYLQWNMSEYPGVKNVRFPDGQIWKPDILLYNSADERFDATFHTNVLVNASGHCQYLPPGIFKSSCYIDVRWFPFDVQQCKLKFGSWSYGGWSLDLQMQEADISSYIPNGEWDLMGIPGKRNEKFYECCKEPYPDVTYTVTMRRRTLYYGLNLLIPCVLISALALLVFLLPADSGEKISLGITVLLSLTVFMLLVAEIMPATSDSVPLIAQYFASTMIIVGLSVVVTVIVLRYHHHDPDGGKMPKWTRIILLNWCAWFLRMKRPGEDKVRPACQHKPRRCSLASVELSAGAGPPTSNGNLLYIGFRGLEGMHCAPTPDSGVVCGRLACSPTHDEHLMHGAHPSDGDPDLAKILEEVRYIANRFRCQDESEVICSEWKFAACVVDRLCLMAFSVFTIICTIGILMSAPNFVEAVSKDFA

Broadly, the IC50 is the midpoint of a concentration-inhibition curve. Read a low IC50 as inhibition by little substance. Turning to `O=c1c2ccccc2nnn1-c1ccc(N2CCN3CCC2CC3)cc1` [Compound D1, 3-[4-(1,4-Diaza-bicyclo[3.2.2]non-4-yl)-phenyl]-3H-benzo[d][1,2,3]triazin-4-one fumaric acid salt], the IC50 came out at 22 nM. The value for `O=c1c2ccccc2ncn1-c1ccc(N2CCN3CCC2CC3)cc1` [Compound E1, 3-[4-(1,4-Diaza-bicyclo[3.2.2]non-4-yl)-phenyl]-3H-quinazolin-4-one fumaric acid salt] was 130 nM.

The values are drawn from US20110257161A1 (priority 2008, published 2011).
